According to ChEMBL document CHEMBL1201862, “PubChem BioAssay data set” (2004):
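How tested: cells in 96-well plates exposed to compound for 48 hours at five concentrations. Abbreviation: GI50, concentration required for 50% inhibition of growth.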 Active and inactive are the calls of the source. Rule as the data show it: active = GI50 up to about 1.1 µM and inactive = higher.

Experiments:
Test in all cases: NCI anticancer screen, dose series, 48 h
OVCAR-4 = tested on: OVCAR-4
HCC 2998 = tested on: HCC 2998
HOP-92 = tested on: HOP-92
PC-3 = tested on: PC-3
U-251 = tested on: U-251
786-0 = tested on: 786-0
RPMI-8226 = tested on: RPMI-8226
CCRF-CEM = tested on: CCRF-CEM
SF-539 = tested on: SF-539
SW-620 = tested on: SW-620
OVCAR-5 = tested on: OVCAR-5
SK-MEL-5 = tested on: SK-MEL-5
HCT-116 = tested on: HCT-116
M14 = tested on: M14
SR = tested on: SR
UO-31 = tested on: UO-31
SK-MEL-2 = tested on: SK-MEL-2
HL-60 = tested on: HL-60
A498 = tested on: A498
NCI-H522 = tested on: NCI-H522

Measured: GI50

CCOC(=O)C1=C(N)N(c2ccccc2)/C(=C2\SC(=S)N(c3ccc(C)cc3)C2=O)S1
inactive: OVCAR-4 18 µM | HCC 2998 50.1 µM | HOP-92 30.5 µM | PC-3 51.4 µM | U-251 29.6 µM | 786-0 29.3 µM | RPMI-8226 93.1 µM | CCRF-CEM 54.2 µM | SF-539 14.8 µM | SW-620 > 100 µM | OVCAR-5 61.9 µM | SK-MEL-5 54.8 µM | HCT-116 63.2 µM | M14 > 100 µM | SR > 100 µM | UO-31 68.2 µM | SK-MEL-2 73.3 µM | HL-60 71.6 µM | A498 31.4 µM | NCI-H522 34.3 µM
